Experimental data as given in paper PMC9229493, “Talaromarins A–F: Six New Isocoumarins from Mangrove-Derived Fungus Talaromyces flavus TGGP35” (Marine Drugs, 2022).
In brackets after ≈: the same amount, converted by molar mass.

Tests used:
[1] = Antioxidant activity assay (ABTS working solution, 734 nm)
Description: The antioxidant activity assay was based on the reported methods. The assay was performed on a 96-well microplate, the reaction was initiated by adding 10 µL of sample solution to 200 µL of ABTS working solution. […] The inhibition rate of each sample was calculated according to the following formula: inhibition rate = [(Ablank − Acompound)/Ablank] × 100%.

α-glucosidase = assay: Inhibitory activity against α-glucosidase (PNPG, 405 nm); settings: read-out: α-glucosidase inhibitory activity IC50; 37 °C, pH 6.8, PNPG substrate
[2] = tested on: S. epidermidis (ATCC 17749); assay: Antibacterial activity, microplate assay; assay type: cell-based; settings: Staphylococcus epidermidis, ATCC17749

SMILES	IC50 [1] [µM]	IC50 (α-glucosidase) [µM]	MIC [2] [µg/mL]
COc1ccc2c(c1O)C(=O)O[C@H](CCC[C@@H](C)O)C2 [Compound 2, Talaromarin B]	28400		
O=C1O[C@H](CCCO)Cc2cccc(O)c21 [Compound 7, (R)-3-(3-hydroxypropyl)-8-hydroxy-3,4-dihydroisocoumarin]	170		
COc1ccc2c(c1O)C(=O)O[C@H](CCCO)C2 [Compound 8, peniciisocoumarin C]	130		
COc1c(O)ccc2c1C(=O)OC(CCCO)C2 (centres unmarked) [Compound 9, 7-hydroxy-3-(3-hydroxypropyl)-8-methoxyisochroman-1-one]	100		
CC(O)CCCC1Cc2c(O)ccc(O)c2C(=O)O1 (centres unmarked) [Compound 11, peniciisocoumarin F]	120		
COc1ccc(O)c2c1C(=O)O[C@H](CCCC(C)=O)C2 [Compound 17, penicimarin H]	120		
COc1c(O)ccc2c1C(=O)O[C@H](CCCC(C)=O)C2 [Compound 18, peniciisocoumarin D]	160	380	
CC(=O)OCCC[C@@H]1Cc2cccc(O)c2C(=O)O1 [Compound 19, peniciisocoumarin G]	150		
O=C(O)c1cn(C2CC2)c2cc(N3CCNCC3)c(F)cc2c1=O [ciprofloxacin]			0.195 (≈ 0.589 µM)

Continued, values first:

IC50 [1] [µM]	IC50 (α-glucosidase) [µM]	MIC [2] [µg/mL]	SMILES
140			CC(=O)CCC[C@@H]1Cc2ccc(O)c(O)c2C(=O)O1 [Compound 6, Talaromarin F]
110	100		CC(O)CCCC1Cc2c(ccc(O)c2O)C(=O)O1 (centres unmarked) [Compound 10, 5,6-dihydroxy-3-(4-hydroxypentyl)-isochroman-1-one]
	620		COC(=O)CC[C@@H]1Cc2ccc(OC)c(O)c2C(=O)O1 [Compound 21, penicimarin N]
9			Cc1c(O)cc2cc(CC(C)O)oc(=O)c2c1O (centres unmarked) [Compound 22, 6,8-dihydroxy-3-(2-hydroxypropyl)-7-methyl-1H-isochromen-1-one]
	540		COc1c(C)c(O)cc2cc(C[C@H](C)O)oc(=O)c12 [Compound 23, pestalotiorin]
290			Cc1c(C)c2c(c(C)c1O)CCC(C)(C(=O)O)O2 (centres unmarked) [Trolox, trolox, reference compound]
